{"source": "patent US9012171B2", "about": "“Systems and methods for measuring translation activity in viable cells” (Anima Cell Metrology, Inc., priority 2007, dated 2015)", "origin": "cited, not measured here", "tested_on": "premature termination codons (PTC)", "settings": "genetic disorders with premature termination codons in the coding sequence of a critical protein", "data": [{"compound": "O=C(O)c1cccc(-c2noc(-c3ccccc3F)n2)c1", "note": "[PTC124]", "values": [{"measurement": "required protein produced, relative to normal concentrations", "result": "1-5%"}]}]}
